Earlier results, collected in US20070298107A1, “Pharmaceutical Compositions of Mirtazapine” (AUROBINDO PHARMA LTD., priority 2003, published 2007).

Settings: background statement

solubility in water: essentially insoluble
SMILES: CN1CCN2c3ncccc3Cc3ccccc3C2C1 (stereo not shown) [Mirtazapine]
